From ChEMBL document CHEMBL4765305, “Elephantopinolide A-P, germacrane-type sesquiterpene lactones from Elephantopus scaber induce apoptosis, autophagy and G2/M phase arrest in hepatocellular carcinoma cells” (Eur J Med Chem, 2020)

Legend:
[1] = test system: HepG2; assay: Anti-hepatoma activity against human HepG2 cells assessed as cell growth inhibition by MTT assay; format: functional, cell-based
[2] = test system: Hep 3B2; assay: Anti-hepatoma activity against human Hep3B cells assessed as cell growth inhibition by MTT assay; format: functional, cell-based
[3] = test system: HepG2; assay: Induction of autophagy in human HepG2 cells by MDC staining based flow cytometry analysis (Rvb =4.46%); format: functional
[4] = test system: Hep 3B2; assay: Induction of autophagy in human Hep3B cells by MDC staining based flow cytometry analysis (Rvb =3.52%); format: functional

C=C(C)C(=O)O[C@H]1CC2=C[C@@H](C[C@@](C)(O)/C=C/[C@@H]1C(=C)C(=O)OC)OC2=O
IC50 [1]: > 20 µM | IC50 [2]: > 20 µM

C=C1C(=O)O[C@H]2[C@H]1[C@@H](OC(=O)/C(C)=C\C)CC1=C[C@@H](C[C@@]3(C)O[C@@H]23)OC1=O
IC50 [1]: 5.99 µM | IC50 [2]: 3.74 µM

C=C1C(=O)O[C@H]2CC3=C[C@@H](C[C@@](C)(O)/C=C/[C@H]12)OC3=O
IC50 [1]: > 20 µM | IC50 [2]: > 20 µM

CNC(=O)c1cc(Oc2ccc(NC(=O)Nc3ccc(Cl)c(C(F)(F)F)c3)cc2)ccn1 [SORAFENIB]
Activity [3]: 4.1% | IC50 [1]: 9.75 µM | Activity [4]: 7.29% | IC50 [2]: 5.2 µM

COC[C@@H]1C(=O)O[C@H]2[C@H]1[C@@H](O)CC1=C[C@H](C[C@@]3(C)O[C@@H]23)OC1=O
IC50 [1]: > 20 µM | IC50 [2]: > 20 µM
